Measured values taken from ChEMBL document CHEMBL5550165, “Novel quinoxaline analogs as telomeric G-quadruplex ligands exert antitumor effects related to enhanced immunomodulation” (Eur J Med Chem, 2024).
Calls of active or inactive are those of the source. The rule behind the calls is not given here.

Key:
Quadruplex DNA = assay: Stabilization of G-quadruplex 5-FAM-telomeric24 DNA-TAMRA-3 (unknown origin) assessed as change in melting temperature incubated for 2 hrs by FRET assay; format: nucleic-acid assay
[1] = Cytotoxicity against human MCF-10A cells incubated for 24 hrs by CCK-8 reagent based spectrophotometric analysis; format: toxicity, cell-based
MDA-MB-231 = assay: Cytotoxicity against human MDA-MB-231 cells incubated for 24 hrs by CCK-8 reagent based spectrophotometric analysis; format: functional, cell-based; conditions: MDA-MB-231, 24 h
4T1 [2] = assay: Cytotoxicity against mouse 4T1 cells incubated for 24 hrs by CCK-8 reagent based spectrophotometric analysis; format: functional, cell-based; conditions: 4T1, 24 h
MCF7 = assay: Cytotoxicity against human MCF7 cells incubated for 24 hrs by CCK-8 reagent based spectrophotometric analysis; format: functional, cell-based; conditions: MCF7, 24 h
U2OS = assay: Cytotoxicity against human U2OS cells incubated for 24 hrs by CCK-8 reagent based spectrophotometric analysis; format: functional, cell-based
BMDC = assay: Induction of immunogenic cell death in BALB/c mouse BMDC cells co-cultured with mouse 4T1 cells assessed as increase in CD11c+ CD80+ CD86 cells maturation at 5 uM incubated for 24 hrs by flow cytometry (reference value: 69.4 %); format: functional
4T1 [3] = assay: Antitumor activity against mouse 4T1 cells implanted in BALB/c mouse assessed as reduction in tumor weight at 2 mg/kg,ip every other day for 14 days; format: functional, organism-based; conditions: time 14.0 day
[4] = Toxicity in BALB/c mouse implanted with mouse 4T1 cells assessed as decrease in body weight at 2 mg/kg,ip every other day for 14 days; format: organism-based; conditions: in vivo, 336 h, time 14 day
[5] = Toxicity in BALB/c mouse implanted with mouse 4T1 cells assessed as decrease in heart weight at 2 mg/kg,ip every other day for 14 days; format: organism-based; conditions: in vivo, 336 h, time 14 day
[6] = Toxicity in BALB/c mouse implanted with mouse 4T1 cells assessed as decrease in liver weight at 2 mg/kg,ip every other day for 14 days; format: organism-based; conditions: in vivo, 336 h, time 14 day
[7] = Toxicity in BALB/c mouse implanted with mouse 4T1 cells assessed as decrease in spleen weight at 2 mg/kg,ip every other day for 14 days; format: organism-based; conditions: in vivo, 336 h, time 14 day
[8] = Toxicity in BALB/c mouse implanted with mouse 4T1 cells assessed as decrease in lung weight at 2 mg/kg,ip every other day for 14 days; format: organism-based; conditions: in vivo, 336 h, time 14 day
[9] = Toxicity in BALB/c mouse implanted with mouse 4T1 cells assessed as decrease in kidney weight at 2 mg/kg,ip every other day for 14 days; format: organism-based; conditions: in vivo, 336 h, time 14 day
4T1 [10] = assay: Antitumor activity against mouse 4T1 cells implanted in BALB/c mouse assessed as damage in tumor tissue at 2 mg/kg,ip every other day for 14 days by hematoxylin and eosin staining analysis; format: functional, organism-based; conditions: time 14.0 day
4T1 [11] = assay: Antitumor immunity against mouse 4T1 cells implanted in BALB/c mouse assessed as increase in proportion of CD4+ T cells in spleen at 2 mg/kg,ip every other day for 14 days by flow cytometry; format: functional, organism-based; conditions: time 14.0 day
4T1 [12] = assay: Antitumor immunity against mouse 4T1 cells implanted in BALB/c mouse assessed as increase in proportion of CD8+ T cells in spleen at 2 mg/kg,ip every other day for 14 days by flow cytometry; format: functional, organism-based; conditions: time 14.0 day
4T1 [13] = assay: Antitumor immunity against mouse 4T1 cells implanted in BALB/c mouse assessed as increase in proportion of CD4+ T cells in tumor at 2 mg/kg,ip every other day for 14 days by flow cytometry; format: functional, organism-based; conditions: time 14.0 day
4T1 [14] = assay: Antitumor immunity against mouse 4T1 cells implanted in BALB/c mouse assessed as increase in proportion of CD8+ T cells in tumor at 2 mg/kg,ip every other day for 14 days by flow cytometry; format: functional, organism-based; conditions: time 14.0 day
4T1 [15] = assay: Antitumor immunity against mouse 4T1 cells implanted in BALB/c mouse assessed as increase in proportion of CD4+ T cells in tumor at 2 mg/kg,ip every other day for 14 days by immunohistochemistry staining based analysis; format: functional, organism-based; conditions: time 14.0 day
4T1 [16] = assay: Antitumor immunity against mouse 4T1 cells implanted in BALB/c mouse assessed as increase in proportion of CD8+ T cells in tumor at 2 mg/kg,ip every other day for 14 days by immunohistochemistry staining based analysis; format: functional, organism-based; conditions: time 14.0 day
4T1 [17] = assay: Antitumor immunity against mouse 4T1 cells implanted in BALB/c mouse assessed as increase in serum IL-6 level at 2 mg/kg,ip every other day for 14 days by ELISA; format: functional, organism-based; conditions: time 14.0 day
4T1 [18] = assay: Antitumor immunity against mouse 4T1 cells implanted in BALB/c mouse assessed as increase in serum TNF-alpha level at 2 mg/kg,ip every other day for 14 days by ELISA; format: functional, organism-based; conditions: time 14.0 day

| Structure (SMILES) | ΔTm (Quadruplex DNA) | IC50 at 24 h [1] | IC50 (MDA-MB-231) | IC50 (4T1 [2]) | IC50 (MCF7) | IC50 (U2OS) | further results |
| --- | --- | --- | --- | --- | --- | --- | --- |
| OCCN1CCN(c2ccc(-c3nc4ccc(C(F)(F)F)cc4nc3-c3ccc(N4CCN(CCO)CC4)cc3)cc2)CC1 | 1.5 °C | 4.1 µM | 2 µM | 4.3 µM | 6.3 µM | 3.7 µM |  |
| CN(CCO)c1ccc(-c2nc3cc4ccccc4cc3nc2-c2ccc(N(C)CCO)cc2)cc1 | 0.9 °C | 11.1 µM | 20.9 µM | 36.4 µM | > 40 µM | > 40 µM |  |
| COc1cccc2c1C(=O)c1c(O)c3c(c(O)c1C2=O)C[C@@](O)(C(=O)CO)C[C@@H]3O[C@H]1C[C@H](N)[C@H](O)[C@H](C)O1 [DOXORUBICIN] |  |  |  |  |  |  | Activity (BMDC): 81.5%; Activity (4T1 [3]): Active; Activity [4]: Toxic; Activity [5]: Toxic; Activity [6]: Toxic; Activity [7]: Toxic; Activity [8]: Toxic; Activity [9]: Toxic; Activity (4T1 [10]): Active; Activity (4T1 [11]): Active; Activity (4T1 [12]): Active; Activity (4T1 [13]): Active; Activity (4T1 [14]): Active; Activity (4T1 [15]): Active; Activity (4T1 [16]): Active; Activity (4T1 [17]): Active; Activity (4T1 [18]): Active |
| OCCN1CCN(c2ccc(-c3nc4ccc(F)cc4nc3-c3ccc(N4CCN(CCO)CC4)cc3)cc2)CC1 | 3.2 °C | 6.3 µM | 1.8 µM | 12.9 µM | 10.5 µM | 4.5 µM |  |
| CN(C)CCN1CCN(c2ccc(-c3nc4cc5ccccc5cc4nc3-c3ccc(N4CCN(CCN(C)C)CC4)cc3)cc2)CC1 | 5.7 °C | 3.7 µM | 5.2 µM | 4 µM | 8.4 µM | 13.3 µM |  |
| COc1ccc2nc(-c3ccc(N(C)CCO)cc3)c(-c3ccc(N(C)CCO)cc3)nc2c1 | 0.1 °C | 24.1 µM | > 40 µM | > 40 µM | > 40 µM | > 40 µM |  |
| CN(C)CCN1CCN(c2ccc(-c3nc4ccc(C(F)(F)F)cc4nc3-c3ccc(N4CCN(CCN(C)C)CC4)cc3)cc2)CC1 | 6.6 °C | 1.5 µM | 2 µM | 1.7 µM | 4.3 µM | 3.5 µM |  |
| COc1ccc2nc(-c3ccc(N(C)CCN(C)C)cc3)c(-c3ccc(N(C)CCN(C)C)cc3)nc2c1 | 6.6 °C | 13.7 µM | 6.2 µM | 9.4 µM | 5.8 µM | 8.8 µM |  |
| CN(CCO)c1ccc(-c2nc3ccc(C(F)(F)F)cc3nc2-c2ccc(N(C)CCO)cc2)cc1 | 0.5 °C | 20.5 µM | > 40 µM | > 40 µM | > 40 µM | 19.3 µM |  |
| CN(CCO)c1ccc(-c2nc3ccc(F)cc3nc2-c2ccc(N(C)CCO)cc2)cc1 | 0.4 °C | 18 µM | 33.2 µM | 31.6 µM | > 40 µM | > 40 µM |  |
| CN(C)CCN(C)c1ccc(-c2nc3ccc(F)cc3nc2-c2ccc(N(C)CCN(C)C)cc2)cc1 | 6 °C | 8.8 µM | 3.1 µM | 5.6 µM | 4.2 µM | 3.1 µM |  |
| COc1ccc2nc(-c3ccc(N4CCN(CCO)CC4)cc3)c(-c3ccc(N4CCN(CCO)CC4)cc3)nc2c1 | 4.1 °C | 6.7 µM | 1.3 µM | 22.1 µM | 15.9 µM | 8 µM |  |
| OCCN1CCN(c2ccc(-c3nc4cc5ccccc5cc4nc3-c3ccc(N4CCN(CCO)CC4)cc3)cc2)CC1 | 1.9 °C | 2.8 µM | 2.5 µM | 4.9 µM | 18.4 µM | 6.6 µM |  |
| COc1ccc2nc(-c3ccc(N4CCN(CCN(C)C)CC4)cc3)c(-c3ccc(N4CCN(CCN(C)C)CC4)cc3)nc2c1 | 5.6 °C | 3.4 µM | 2.3 µM | 5.3 µM | 9.5 µM | 6.9 µM |  |
| CN(C)CCN(C)c1ccc(-c2nc3cc4ccccc4cc3nc2-c2ccc(N(C)CCN(C)C)cc2)cc1 | 7.9 °C | 1.3 µM | 1.4 µM | 2.9 µM | 1.9 µM | 1.5 µM |  |
| CN(C)CCN1CCN(c2ccc(-c3nc4ccc(F)cc4nc3-c3ccc(N4CCN(CCN(C)C)CC4)cc3)cc2)CC1 | 8.3 °C | 2.7 µM | 2.9 µM | 2.3 µM | 6.1 µM | 3.6 µM |  |
